The assay deals with Plasmodium berghei. Description: Luciferase/luciferin-expressing antifolate-resistant parasites were used to infect a culture of HepG2 cells that were pre-incubated with compounds. Infected hepatocytes emit light due to the luciferase reaction. Assay results are presented as the percent inhibition of light emission compared to control. […]. The assay is classed as functional. The note with it: sporozoite; for IC90: read-out: LUCIFERASE INFECTION ASSAY - IC90.

Setting [1] is: read-out: LUCIFERASE INFECTION ASSAY - IC50.

Results on 40 compounds are retold here after ChEMBL document CHEMBL4483862, “Open-source discovery of chemical leads for next-generation chemoprotective antimalarials” (2018).

Molecules are shown by their SMILES. Bounds are passed on as bounds.

The IC50 is the concentration at which inhibition is half-maximal. As a reminder, the IC90 is the point of the concentration-response curve where the effect stands at 90%. Take `Cc1ccc(C)c(S(=O)(=O)N(CC(=O)N2CCN(C(=O)c3ccco3)CC2)c2cccc(C(F)(F)F)c2)c1`: the IC90 was determined as 8.16 µM. Also, under “PBLUC_HILL_SLOPE 4.06, PBLUC_R_SQUARED 0.673, read-out: LUCIFERASE INFECTION ASSAY - IC50”, the IC50 amounted to 4.75 µM. Turning to `Clc1ccc(-c2nc(-c3ccccc3)c(-c3ccccc3)n2CCc2ccc(Cl)cc2Cl)cc1`, the IC90 was > 10 µM. In addition, the IC50 (PBLUC_HILL_SLOPE 13, PBLUC_R_SQUARED 0.179, read-out: LUCIFERASE INFECTION ASSAY - IC50) came out at 9.63 µM. For `CN(CC1COc2ccccc2O1)C(=O)Nc1nc2ccccc2s1` (centres undefined), the IC90 is > 10 µM. In the case of `CCn1c(NC(=O)c2c(C)nn(-c3ccccc3)c2C)nc2ccccc21`, the IC90 turned out to be 9.89 µM. Under “HEPG2TOX_HILL_SLOPE 11.2, HEPG2TOX_R_SQUARED 0.651, PBLUC_HILL_SLOPE 20.8, PBLUC_R_SQUARED 0.508, read-out: LUCIFERASE INFECTION ASSAY - IC50”, the IC50 is 8.9 µM. For the compound `O=C1CCC(c2ccccc2)C(=O)/C1=N\Nc1ccc(Cl)cc1` (centres undefined), the IC90 is > 10.1 µM. Besides, the IC50 under setting [1] is > 10.1 µM. For the compound `O=C(c1cccc(-c2nn[nH]n2)c1)N1CCC2CCCCC2C1` (centres undefined), the IC90 was > 10 µM. Moreover, the IC50 under setting [1] is > 10 µM. As to `CO[C@H]1[C@@H](O)[C@@H](C)O[C@H](O[C@H]2CC[C@]3(C)C4CC[C@]5(C)[C@@H](C6=CC(=O)OC6)CC[C@]5(O)C4CC[C@]3(O)C2)[C@@H]1O` (some centres undefined), the IC90 amounted to 0.258 µM. Moreover, the IC50 (HEPG2TOX_HILL_SLOPE 2.49, HEPG2TOX_R_SQUARED 0.917, PBLUC_HILL_SLOPE 3.98, PBLUC_R_SQUARED 0.716, read-out: LUCIFERASE INFECTION ASSAY - IC50) was determined as 0.148 µM. In the case of `CCc1nnc(Sc2ncnc3ccsc23)[nH]1`, the IC90 was > 10 µM. Under setting [1], the IC50 is > 10 µM.

`CC(C)c1ccc(NC(=O)N2Cc3cnc(Nc4ccc(OCCN5CCCC5)cc4)nc3C2)cc1`: the IC90 is > 6.78 µM. Besides, under setting [1], the IC50 is > 6.78 µM. With `Cc1cc([N+](=O)[O-])cc[n+]1[O-]`, the IC90 was > 21.4 µM. The IC50 (PBLUC_HILL_SLOPE 2.57, PBLUC_R_SQUARED 0.305, read-out: LUCIFERASE INFECTION ASSAY - IC50) was found to be 14.6 µM. Take `CNC(=O)c1ccc(-c2cc(C(F)(F)F)n(C)n2)s1`: the IC90 was > 11.4 µM. Besides, under setting [1], the IC50 was > 11.4 µM. On to `CNc1snc(C)c1C(=O)OCCOc1ccccc1C(C)=O`, for which the IC90 came to 7.06 µM. For the same compound, the IC50 (HEPG2TOX_HILL_SLOPE 1.35, HEPG2TOX_R_SQUARED 0.846, PBLUC_HILL_SLOPE 3.65, PBLUC_R_SQUARED 0.5, read-out: LUCIFERASE INFECTION ASSAY - IC50) stood at 3.86 µM. Turning to `CC(=O)c1cccc(-c2cnc3cnc(-c4cccc(F)c4)cn23)c1`, the IC90 was > 9.96 µM. The IC50 (PBLUC_HILL_SLOPE 3, PBLUC_R_SQUARED 0.624, read-out: LUCIFERASE INFECTION ASSAY - IC50) was found to be 7.54 µM. On to `COc1ccc(S(=O)(=O)OCCSc2ccc([N+](=O)[O-])c3nonc23)cc1`, for which the 90% effect concentration (IC90) is > 8.02 µM. In addition, the IC50 (FFLUC_HILL_SLOPE 1.23, FFLUC_R_SQUARED 0.562, read-out: LUCIFERASE INFECTION ASSAY - IC50) is > 8.02 µM. In the case of `COc1ccc2c(-c3ccccc3)cc(SCc3nnc(C)o3)nc2c1`, the IC90 is > 10 µM. Further, under “PBLUC_HILL_SLOPE 2.18, PBLUC_R_SQUARED 0.122, read-out: LUCIFERASE INFECTION ASSAY - IC50”, the IC50 is 6.06 µM.

`CCNC(=O)NC(=O)C(C)OC(=O)c1c(C)c(CC)nc2ccccc12` (centres undefined): the 90% effect concentration (IC90) is > 10 µM. Moreover, the IC50 (HEPG2TOX_HILL_SLOPE 14.2, HEPG2TOX_R_SQUARED 0.666, PBLUC_HILL_SLOPE 0.849, PBLUC_R_SQUARED 0.474, read-out: LUCIFERASE INFECTION ASSAY - IC50) is 4.39 µM.

As to `O=C(Cc1csc(-c2ccccc2)n1)Nc1nc2c(s1)CCCC2`, the IC90 was > 10 µM. Further, under setting [1], the half-inhibitory concentration (IC50) was > 10 µM. Take `Cc1ccc(NC(=O)c2cnn(-c3cccc(Cl)c3)c2C(C)C)nc1`: the IC90 was found to be 4.3 µM. Besides, under “PBLUC_HILL_SLOPE 12, PBLUC_R_SQUARED 0.586, read-out: LUCIFERASE INFECTION ASSAY - IC50”, the IC50 amounted to 3.58 µM. For `Cc1nnc(Sc2ccc([N+](=O)[O-])c(Sc3nnc(C)s3)n2)s1`, the concentration for an effect of 90% (IC90) is > 8.58 µM. For the setting “HEPG2TOX_HILL_SLOPE 6.33, HEPG2TOX_R_SQUARED 0.72, PBLUC_HILL_SLOPE 8.1, PBLUC_R_SQUARED 0.222, read-out: LUCIFERASE INFECTION ASSAY - IC50”, the IC50 is > 8.58 µM. Regarding `CCCNc1cc(-c2ccccc2)nc(-n2nc(C)cc2C)n1`, the IC90 came out at 4.24 µM. Moreover, under “PBLUC_HILL_SLOPE 8.43, PBLUC_R_SQUARED 0.511, read-out: LUCIFERASE INFECTION ASSAY - IC50”, the IC50 turned out to be 3.27 µM. For the compound `Cc1cc(OCc2nc3ccc(Cl)cc3[nH]2)c(C(C)C)cc1Cl`, the IC90 is > 10 µM. The IC50 under setting [1] is > 10 µM. For the compound `CCCn1c(NC(=O)C2CCCN(S(=O)(=O)c3cccs3)C2)nc2ccccc21` (centres undefined), the IC90 was > 10 µM. In addition, the IC50 (FFLUC_HILL_SLOPE 15.6, FFLUC_R_SQUARED 0.229, read-out: LUCIFERASE INFECTION ASSAY - IC50) is > 10 µM. Take `N#Cc1ccc(COC(=O)c2ccc(O)cc2)cc1`: the IC90 was > 10 µM. Also, under setting [1], the IC50 was > 10 µM. As to `CCOC(=O)c1c(C)[nH]c(/C(C)=N/Nc2nc3ccccc3[nH]2)c1C`, the IC90 is > 10 µM. Moreover, the IC50 (HEPG2TOX_HILL_SLOPE 6.05, HEPG2TOX_R_SQUARED 0.279, PBLUC_HILL_SLOPE 4.56, PBLUC_R_SQUARED 0.397, read-out: LUCIFERASE INFECTION ASSAY - IC50) turned out to be 8.41 µM. Take `Cc1cc(=O)n2nc(-c3ccccc3)cc2n1CC(=O)Nc1cc(Cl)ccc1N1CCCCC1`: the IC90 was determined as 4.37 µM. Also, the IC50 under setting [1] was determined as 3.43 µM. As to `O=C(Nc1cc(Cl)sc1Cl)Oc1cccnc1`, the IC90 was 10.6 µM. Further, the IC50 (PBLUC_HILL_SLOPE 2.49, PBLUC_R_SQUARED 0.591, read-out: LUCIFERASE INFECTION ASSAY - IC50) came out at 4.41 µM. Consider `CCCCc1ccc2nc(NC(=O)c3cccnc3-n3cncn3)sc2c1`, for which the IC90 is > 10 µM. Besides, the IC50 (HEPG2TOX_HILL_SLOPE 2.58, HEPG2TOX_R_SQUARED 0.943, PBLUC_HILL_SLOPE 1.45, PBLUC_R_SQUARED 0.435, read-out: LUCIFERASE INFECTION ASSAY - IC50) worked out at 4 µM.

On to `CCNC(=O)N1CCc2nc(Nc3cc(C)cc(C)c3)ncc2C1`, for which the 90% effect concentration (IC90) was > 10.1 µM. The IC50 under setting [1] is > 10.1 µM. For the compound `COc1ccccc1C(=O)NCc1cn(Cc2ccccc2)nc1-c1ccccc1`, the IC90 is > 10 µM. Also, the IC50 (PBLUC_HILL_SLOPE 11.8, PBLUC_R_SQUARED 0.553, read-out: LUCIFERASE INFECTION ASSAY - IC50) came to 9.21 µM.

Regarding `CC1CC1c1ccc(/C=C2\C(=O)Nc3cc(Cl)ccc32)o1` (centres undefined), the concentration for an effect of 90% (IC90) is > 10 µM. For the same compound, the IC50 (HEPG2TOX_HILL_SLOPE 10.3, HEPG2TOX_R_SQUARED 0.792, PBLUC_HILL_SLOPE 17.7, PBLUC_R_SQUARED 0.192, read-out: LUCIFERASE INFECTION ASSAY - IC50) is 9.66 µM. In the case of `Cc1cc(C(=O)OCc2c(Cl)cccc2Cl)c(C)o1`, the IC90 is > 10 µM. Further, under setting [1], the IC50 was > 10 µM.

Regarding `O=C(Nc1nnc(C(F)(F)F)[nH]1)c1cc(-c2ccc(Br)cc2)nc2ccccc12`, the IC90 was > 10 µM. Where the note is “HEPG2TOX_HILL_SLOPE 7.84, HEPG2TOX_R_SQUARED 0.569, PBLUC_HILL_SLOPE 1.54, PBLUC_R_SQUARED 0.197, read-out: LUCIFERASE INFECTION ASSAY - IC50”, the IC50 worked out at 9.57 µM. On to `CCOc1cccc(-c2cn3c(-c4ccc(C(=O)NC5CC5)cc4)cnc3cn2)c1`, for which the IC90 was 8.02 µM. Further, the IC50 (HEPG2TOX_HILL_SLOPE 1.3, HEPG2TOX_R_SQUARED 0.854, PBLUC_HILL_SLOPE 1.74, PBLUC_R_SQUARED 0.806, read-out: LUCIFERASE INFECTION ASSAY - IC50) worked out at 2.27 µM. For `CNc1snc(C)c1C(=O)OCc1coc(-c2cccs2)n1`, the IC90 is 0.0184 µM. The IC50 (PBLUC_HILL_SLOPE 23.3, PBLUC_R_SQUARED 0.377, read-out: LUCIFERASE INFECTION ASSAY - IC50) was 0.0168 µM.

With `CC(C)(C)OC(=O)N[C@@H](Cc1ccccc1)c1n[nH]c(=S)n1CC1CCCO1` (some centres undefined), the IC90 is > 8.16 µM. Besides, the IC50 under setting [1] was > 8.16 µM. `Cc1cccc(NC(=O)CN2C(=O)/C(=C(/C#N)c3nc4ccccc4[nH]3)c3ccccc32)c1`: the IC90 is > 10 µM. Where the note is “FFLUC_HILL_SLOPE 4.46, FFLUC_R_SQUARED 0.474, HEPG2TOX_HILL_SLOPE 6.44, HEPG2TOX_R_SQUARED 0.532, PBLUC_HILL_SLOPE 2.02, PBLUC_R_SQUARED 0.59, read-out: LUCIFERASE INFECTION ASSAY - IC50”, the IC50 is 5.68 µM. As to `Cc1cc(C(=O)COC(=O)c2ccccc2N/C=C/C(=O)C(F)(F)F)c(C)n1CC1CCCO1` (centres undefined), the IC90 was > 10 µM. For the same compound, for the setting “FFLUC_HILL_SLOPE 1.17, FFLUC_R_SQUARED 0.844, PBLUC_HILL_SLOPE 1.67, PBLUC_R_SQUARED 0.404, read-out: LUCIFERASE INFECTION ASSAY - IC50”, the IC50 came out at 3.35 µM. Turning to `CNc1snc(C)c1C(=O)N(C)Cc1ccc(F)cc1F`, the IC90 was found to be 4.37 µM. In addition, the IC50 (PBLUC_HILL_SLOPE 10.5, PBLUC_R_SQUARED 0.526, read-out: LUCIFERASE INFECTION ASSAY - IC50) turned out to be 3.55 µM. For `O=C(CC1(O)C(=O)Nc2ccccc21)c1ccc(OCC(=O)N2CCOCC2)cc1` (centres undefined), the IC90 was > 10 µM. The IC50 under setting [1] was > 10 µM.

In the case of `Cc1[nH]c2ccccc2c1Sc1ccc(Cl)cc1`, the IC90 was > 12.1 µM. Also, the IC50 under setting [1] was > 12.1 µM.
